Literature values in USRE30496E, “Tripeptide derivatives with central nervous system activity and preparation thereof” (Ayerst, McKenna & Harrison, Ltd., priority 1979, dated 1981).

Experiments:
[1] = tested on: behavioral effects of (3,4-dihydroxyphenyl)-L-alanine (L-DOPA); conditions: literature (Plotnikoff 1971; Friedman 1973)
effects of oxotremorine = conditions: literature (Plotnikoff 1972)
mice = conditions: literature (Plotnikoff 1973)
monkeys = conditions: literature (Plotnikoff 1973)
[2] = in vivo

For “H-L-prolyl-L-leucyl-glycinamide [H--Pro--Leu--Gly--NH2]”, the “potentiation of the behavioral effects of L-DOPA” value [1] is listed as “potentiates the behavioral effects”, the “antagonism of the effects of oxotremorine” value (effects of oxotremorine) is listed as “antagonizes the effects of oxotremorine” and the “reversal of the sedative effects of deserpidine” value (mice) is listed as “reverses the sedative effects of deserpidine”. For the same substance, the “reversal of the sedative effects of deserpidine” value (monkeys) was “reverses the sedative effects of deserpidine” and the “first step in the inactivation” value [2] was “proteolytic cleavage of the Pro-Leu bond”.
